The text below walks through data of patent US10435405B2, “Pyrazolopyridine compounds and uses thereof” (Incyte Corporation, priority 2016, dated 2019).

One may read the Ki as the dissociation constant of the complex between target and ligand, obtained from inhibition or displacement.

Sequence of HPK1 (Q92918 1-346): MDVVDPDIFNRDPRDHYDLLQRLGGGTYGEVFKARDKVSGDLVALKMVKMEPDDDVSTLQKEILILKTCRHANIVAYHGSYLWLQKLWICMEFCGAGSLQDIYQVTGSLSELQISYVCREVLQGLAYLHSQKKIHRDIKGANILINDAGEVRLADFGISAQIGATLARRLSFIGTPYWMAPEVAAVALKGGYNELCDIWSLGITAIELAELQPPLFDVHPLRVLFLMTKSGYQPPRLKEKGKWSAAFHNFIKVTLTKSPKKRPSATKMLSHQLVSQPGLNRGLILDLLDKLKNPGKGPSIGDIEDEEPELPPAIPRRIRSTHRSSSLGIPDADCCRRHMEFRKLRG

For the test, the target named is HPK1 (Homo sapiens (Human), UniProt Q92918). The test is described as follows: HPK1 Kinase Binding Assay. Put shortly:
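This is a LanthaScreen tracer-binding format: a tracer 222/Eu-anti-GST antibody mix (18 nM and 4 nM solution) is added to active HPK1 (4 nM solution) with 3-fold, 11-point compound dilutions. Incubation is 1 h at 25 °C in HEPES pH 7.5 buffer before reading, and Ki is determined.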
`CCc1ccc(C(=O)Nc2n[nH]c3cnc(-c4c(F)cccc4OC)cc23)cc1` [Example 8, 4-Ethyl-N-(5-(2-fluoro-6-methoxyphenyl)-1H-pyrazolo[3,4-c]pyridin-3-yl)benzamide] registered a Ki of no more than 100 nM.

`CNCc1ccc(C)c(-c2cc3c(-c4cnn(C)c4)n[nH]c3cn2)c1` [Example 87, N-Methyl-1-(4-methyl-3-(3-(1-methyl-1H-pyrazol-4-yl)-1H-pyrazolo[3,4-c]pyridin-5-yl)phenyl)methanamine] showed a Ki of no more than 100 nM.

Turning to `COc1cccc(F)c1-c1cc2c(NC(=O)c3ccc(N4CCN(C)C(=O)C4)cc3)n[nH]c2cn1` [Example 27, N-(5-(2-fluoro-6-methoxyphenyl)-1H-pyrazolo[3,4-c]pyridin-3-yl)-4-(4-methyl-3-oxopiperazin-1-yl)benzamide], the Ki was no more than 100 nM.

Regarding `CNC1CCc2c1cc(C)c(-c1cc3c(-c4cnn(C)c4)n[nH]c3cn1)c2F` (single isomer, unassigned) [Example 238, 4-Fluoro-N,6-dimethyl-5-(3-(1-methyl-1H-pyrazol-4-yl)-1H-pyrazolo[3,4-c]pyridin-5-yl)-2,3-dihydro-1H-inden-1-amine], the Ki is no more than 100 nM.

For the compound `Cn1cc(-c2n[nH]c3cnc(-c4c(F)ccc(CNC5CC5)c4F)cc23)cn1` [Example 129, N-(2,4-Difluoro-3-(3-(1-methyl-1H-pyrazol-4-yl)-1H-pyrazolo[3,4-c]pyridin-5-yl)benzyl)cyclo propanamine], the Ki is no more than 100 nM.

Compound `COc1c(-c2cc3c(-c4ccc(N5CCN(C)CC5)cc4)n[nH]c3cn2)c(F)cc2c1C(N)CC2` (centres unmarked) [Example 206, 5-Fluoro-7-methoxy-6-(3-(4-(4-methylpiperazin-1-yl)phenyl)-1H-pyrazolo[3,4-c]pyridin-5-yl)-2,3-dihydro-1H-inden-1-amine] returned a Ki of no more than 100 nM.

In turn, `Cc1cc(NC(=O)CCN(C)C)cc(F)c1-c1cc2c(-c3cnn(C)c3)n[nH]c2cn1` [Example 84, 3-(Dimethylamino)-N-(3-fluoro-5-methyl-4-(3-(1-methyl-1H-pyrazol-4-yl)-1H-pyrazolo[3,4-c]pyridin-5-yl)phenyl)propanamide] registered a Ki of no more than 100 nM.

`COc1cccc(F)c1-c1cc2c(NCc3ccc(N4CCN(C)CC4)cc3)n[nH]c2cn1` [Example 41, 5-(2-Fluoro-6-methoxyphenyl)-N-(4-(4-methylpiperazin-1-yl)benzyl)-1H-pyrazolo[3,4-c]pyridin-3-amine]: the Ki was 500 to 2000 nM.

In turn, `COc1cccc(C(=O)Nc2n[nH]c3cnc(-c4c(F)cc(CNC(C)C)cc4F)cc23)c1` [Example 146, N-(5-(2,6-Difluoro-4-((isopropylamino)methyl)phenyl)-1H-pyrazolo[3,4-c]pyridin-3-yl)-3-methoxybenzamide] gave a Ki of no more than 100 nM.

`Cn1cc(-c2n[nH]c3cnc(-c4c(F)cc(NC(=O)Cc5cccnc5)cc4F)cc23)cn1` [Example 67, N-(3,5-Difluoro-4-(3-(1-methyl-1H-pyrazol-4-yl)-1H-pyrazolo[3,4-c]pyridin-5-yl)phenyl)-2-(pyridin-3-yl)acetamide] gave a Ki of no more than 100 nM.

`CNC(C)c1cc(C)c(-c2cc3c(-c4cnn(C5CC5)c4)n[nH]c3cn2)c(F)c1` (single isomer, unassigned) [Example 228, 1-(4-(3-(1-Cyclopropyl-1H-pyrazol-4-yl)-1H-pyrazolo[3,4-c]pyridin-5-yl)-3-fluoro-5-methylphenyl)-N-methylethanamine]: the Ki was no more than 100 nM.

Take `COc1cccc(F)c1-c1cc2c(NC(=O)c3cnn(C)c3)n[nH]c2cn1` [Example 14, N-(5-(2-Fluoro-6-methoxyphenyl)-1H-pyrazolo[3,4-c]pyridin-3-yl)-1-methyl-1H-pyrazole-4-carboxamide]: the Ki is no more than 100 nM.

With `COc1cccc(F)c1-c1cc2c(-c3ccc(N4CCN(C)CC4)cc3)n[nH]c2cn1` [Example 43, 5-(2-Fluoro-6-methoxyphenyl)-3-(4-(4-methylpiperazin-1-yl)phenyl)-1H-pyrazolo[3,4-c]pyridine], the Ki is no more than 100 nM.

Consider `Cc1cccc(F)c1-c1cc2c(NC(=O)c3ccc(N4CCN(C)CC4)cc3N)n[nH]c2cn1` [Example 157, 2-Amino-N-(5-(2-fluoro-6-methylphenyl)-1H-pyrazolo[3,4-c]pyridin-3-yl)-4-(4-methylpiperazin-1-yl)benzamide], for which the Ki was no more than 100 nM.

`CNCc1cc(F)c(-c2cc3c(-c4cnn(CCO)c4)n[nH]c3cn2)c(F)c1` [Example 164, 2-(4-(5-(2,6-Difluoro-4-((methylamino)methyl)phenyl)-1H-pyrazolo[3,4-c]pyridin-3-yl)-1H-pyrazol-1-yl)ethanol] displayed a Ki of no more than 100 nM.

For the compound `CNCc1cc(F)c(-c2cc3c(-c4ccc(N5CCOCC5)nc4)n[nH]c3cn2)c(C(F)(F)F)c1` [Example 121, 1-(3-Fluoro-4-(3-(6-morpholinopyridin-3-yl)-1H-pyrazolo[3,4-c]pyridin-5-yl)-5-(trifluoromethyl)phenyl)-N-methylmethanamine], the Ki was no more than 100 nM.

On to `CN1CCN(c2ccc(-c3n[nH]c4cnc(-c5c(F)cccc5CC#N)cc34)cc2)CC1` [Example 194, 2-(3-Fluoro-2-(3-(4-(4-methylpiperazin-1-yl)phenyl)-1H-pyrazolo[3,4-c]pyridin-5-yl)phenyl)acetonitrile], for which the Ki is no more than 100 nM.

`COc1cccc(F)c1-c1cc2c(N3CCN(c4ccc(Br)cc4)C(=O)C3)n[nH]c2cn1` [Example 37, 1-(4-Bromophenyl)-4-(5-(2-fluoro-6-methoxyphenyl)-1H-pyrazolo[3,4-c]pyridin-3-yl)piperazin-2-one] registered a Ki of no more than 100 nM.

Regarding `COc1cccc(F)c1-c1cc2c(NC(=O)c3cccc(N4CCNC(=O)C4)c3)n[nH]c2cn1` [Example 17, N-(5-(2-Fluoro-6-methoxyphenyl)-1H-pyrazolo[3,4-c]pyridin-3-yl)-3-(3-oxopiperazin-1-yl)benzamide], the Ki is no more than 100 nM.

Regarding `COc1cccc(F)c1-c1cc2c(-c3cnc(N4CCOCC4)s3)n[nH]c2cn1` [Example 34, 4-(5-(5-(2-Fluoro-6-methoxyphenyl)-1H-pyrazolo[3,4-c]pyridin-3-yl)thiazol-2-yl)morpholine], the Ki was no more than 100 nM.

`COC(=O)N1CCN(c2ccc(C(=O)Nc3n[nH]c4cnc(-c5c(F)cc(CNC(C)C)cc5F)cc34)c(F)c2)CC1` [Example 148, Methyl 4-(4-(5-(2,6-difluoro-4-((isopropylamino)methyl)phenyl)-1H-pyrazolo[3,4-c]pyridin-3-ylcarbamoyl)-3-fluorophenyl)piperazine-1-carboxylate] gave a Ki of no more than 100 nM.

`CN1CCN(c2ccc(-c3n[nH]c4cnc(-c5c(F)cccc5Cl)cc34)cc2)CC1` [Example 47, 5-(2-Chloro-6-fluorophenyl)-3-(4-(4-methylpiperazin-1-yl)phenyl)-1H-pyrazolo[3,4-c]pyridine] displayed a Ki of no more than 100 nM.

In turn, `Cc1cc(C2CCCCN2)cc(F)c1-c1cc2c(-c3cnn(C4CC4)c3)n[nH]c2cn1` (single isomer, unassigned) [Example 233, 3-(1-Cyclopropyl-1H-pyrazol-4-yl)-5-(2-fluoro-6-methyl-4-(piperidin-2-yl)phenyl)-1H-pyrazolo[3,4-c]pyridine] had a Ki of no more than 100 nM.
